These results are taken from patent US20250186401A1, “COMBINATORIAL ACTIVATION OF GABA(B) AND A2 ADRENERGIC RECEPTORS PROVIDES RELIEF FROM STRESS INDUCED DEPRESSION” (University of Florida Research Foundation, Incorporated, priority 2022, published 2025).

The subject of this assay is mice subjected to UCMS. Briefly: TST in unpredictable chronic mild stress (UCMS) model. In kind it is in vivo. The settings on record: UCMS mice (4 weeks); injection day 29, TST 30 min after; vs vehicle; FIG. 3B. The method, then: TST was performed 30 min after injection time. To perform the TST, the tails of the mice were wrapped with tape that covered approximately 4/5 of the tail length and then fixed upside down on a hook. The immobility time of each mouse was recorded and tracked over a 6 min period. The Porsolt FST was conducted using vertical clear glass cylinder (10 cm in diameter, 25 cm in height) filled with water (25° C.). The mice spent 6 min in the water and immobility was scored from 2 to 6 min. A mouse was regarded as immobile when floating motionless or making only those movements necessary to keep its head above the water.
This study investigated the effects of ClonBac in a mouse model of unpredictable chronic mild stress (0). For the UCMS paradigm, mice were housed in individual cages and were subjected to 4 weeks of stressors, with two stressors applied within a 24 hr period. Stressors were applied pseudo-randomly and included: intermittent bell (10 db, 1/10 s), continuous white noise for 4 h, rat odor, 45° cage tilt for 4 h, 30 minute cage shaking, soiled bedding for 8 hr, paired housing with a new partner for 2 h, overnight illumination, removal of nesting material for 12 hr, placement of a novel object in home cage for 3 h, and physical restraint for 1 h. Stressors continued to be applied during the behavioral testing phase. […]

Each structure is given as a SMILES string.

On to `NCC(CC(=O)O)c1ccc(Cl)cc1` (stereo not drawn) [baclofen, β-(4-chlorophenyl)-γ-aminobutyric acid], for which the TST immobility time result is reported as “significantly attenuated immobility TST time”.
